Results published in patent US11974990B2, “TXNIP-TRX complex inhibitors and methods of using the same” (City of Hope, priority 2018, dated 2024).
Entries after “also recorded” stand apart in the source; their conditions may differ.

What was measured:
TNF-α mRNA = TNF-α mRNA expression (RT-PCR) in THP1 cells under high glucose; assay type: cell-based, human
Procedure: FIG. 8. […] High glucose induced TNF expression in THP1 cells. This HG induced TNF increase is alleviated by C1 in dose manner (1.25, 2.5 and 5 uM). Results shown are means±SE of triplet real-time PCRs. *:P=0.002 vs. HG only, by t tests; **:P=0.001 vs. HG only, by t tests.
(§1) FIGS. 9A-9B. FIG. 9A. […] THP1 cells were cultured in 25 mM glucose with the indicated concentrations of C1 for 72 h. Cell were collected for total RNA preparation. RT-PCR were performed and data shown are the mean+SEM from triplicates. Statistical analysis was performed using one-way ANOVA, *<0.0001. FIG. 9B. […] THP1 cells were cultured in 25 mM glucose and C1 (uM) as indicated for 72 hours and collected for total RNA preparation. RT-PCR was performed. Data shown are the mean+SEM from triplicates. Statistical analysis was performed using one-way ANOVA: *<0.02; **<0.0001.
(§2) RNA extraction and quantitative RT-PCR. RNA was extracted using the Direct-zol™ RNA MiniPrep Plus (Zymo Research). […] Diluted cDNA was quantified using real-time PCR performed with Power SYBR Green qPCR MasterMix (Applied Biosystem) and 7500 real-time PCR system (Applied Biosystems). […]
(§3) RNA extraction and quantitative RT-PCR. […] Diluted cDNA was quantified using real-time PCR performed with Power SYBR Green qPCR MasterMix (Applied Biosystem) and 7500 real-time PCR system (Applied Biosystems). […]

purified TXNIP = target: T1, purified TXNIP (Homo sapiens, UniProt Q9H3M7); assay: DARTS assay with purified TXNIP and TRX1 proteins; assay type: binding; settings: purified TXNIP + TRX1, protease, 7 minutes (FIG. 16)
T1 construct: purchased LSBio (TXNIP); Sigma (TRX1); host or cells: E. coli (TXNIP)
T1 sequence (Q9H3M7 1-391): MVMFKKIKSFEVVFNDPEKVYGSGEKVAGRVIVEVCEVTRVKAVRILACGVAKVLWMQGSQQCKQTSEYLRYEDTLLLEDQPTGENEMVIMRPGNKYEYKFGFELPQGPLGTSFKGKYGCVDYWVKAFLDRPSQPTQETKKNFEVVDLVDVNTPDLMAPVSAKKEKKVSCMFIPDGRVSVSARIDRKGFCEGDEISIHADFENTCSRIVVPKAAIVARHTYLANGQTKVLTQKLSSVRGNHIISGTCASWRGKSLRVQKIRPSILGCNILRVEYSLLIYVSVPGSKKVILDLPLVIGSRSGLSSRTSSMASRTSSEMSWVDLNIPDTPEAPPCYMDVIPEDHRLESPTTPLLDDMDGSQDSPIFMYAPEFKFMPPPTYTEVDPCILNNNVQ
Procedure: FIG. 16. […] Purified TRX and TXNIP proteins and C1 (at the indicated concentrations) were mixed together. Protease was added. Aliquots were withdrawn at 7 minutes and loaded on 10% SDS gels. C1: compound 1; control: without protease.
To further confirm that C1 is able to protect TXNIP from proteolysis in the presence of TXNIP+TRX1, we performed DARTS assay using pure TXNIP protein (LSBio) and TRX1 protein (Sigma). The TRX1 protein we employed is also usually used for TRX1 activity assays. In contrast, the TXNIP protein is generated by E. coli and might not be in the active form. Therefore, we re-natured the protein prior to use in the DARTS assay.

TXNIP mRNA [1] = assay: TXNIP mRNA expression (RT-PCR) in human 1.1B4 pancreatic β cells; assay type: cell-based; settings: 1.1B4 β cells, 25 mM glucose, 72 h (FIG. 12 left)
Procedure: FIG. 12. […] Human 1.1B4 β cells were cultured in 25 mM glucose with C1 (uM) for 72 h. Total RNA was prepared. RT-PCR was performed. Data shown are the mean+SEM from triplicates. Statistical analysis was performed for each column vs. HG DMSO using one-way ANOVA: *<0.0001.
RNA extraction and quantitative RT-PCR. RNA was extracted using the Direct-zol™ RNA MiniPrep Plus (Zymo Research). Reverse transcription of RNA samples into cDNA was performed using the GeneAmp RNA PCR Kit (Applied Biosystems), dNTP (from Roche Applied Science), Rnase inhibitor, MULV Reverse Transcriptase and Random hexamers reagent (all from Invitrogen). Diluted cDNA was quantified using real-time PCR performed with Power SYBR Green qPCR MasterMix (Applied Biosystem) and 7500 real-time PCR system (Applied Biosystems). The HPRT1 gene was used as an internal control.

TXNIP mRNA [2] = assay: TXNIP mRNA expression (RT-PCR) in THP1 cells under 25 mM glucose; assay type: cell-based, human; settings: THP1, 25 mM glucose, concentration range of C1, 72 h (FIG. 9A)
Procedure: as §1
FIG. 13. C1 analogs affects TXNIP mRNA expression in THP1 cells. THP1 cells were cultured in 25 mM glucose with 5 uM of compounds for 72 h. Total RNA was collected and RT-PCR was performed in triplicate and data shown are the mean+SEM. Statistical analysis was performed using one-way ANOVA: *<0.0001.
as §2, §3

TXNIP = target: T2, TXNIP (Homo sapiens, UniProt Q9H3M7); assay: DARTS assay (drug affinity responsive target stability) in THP1 cell extracts; assay type: binding; settings: THP1 extracts after 25 mM glucose 72 h; 10 and 20 minutes, 0.5 to 4 uM lanes (FIG. 15)
T2 construct: Cell extracts were prepared; endogenous in cells; host or cells: THP1 cell lysate (25 mM glucose, 72 h)
T2 sequence (Q9H3M7 1-391): T1 sequence (Q9H3M7 1-391)
Procedure: FIG. 15. […] THP1 cell were cultured in RPMI 1640 medium in 25 mM glucose for 72 hours. Cell extracts were prepared. C1 was added at the indicated concentrations and protease was added except in control cells. Aliquots were withdrawn at 10, 20, 30 and 40 minutes and loaded onto 10% SDS gels. C1: compound 1; control: without protease.
Assay 3: DARTS Assay (drug affinity responsive target stability). We adopted the DARTS assay because it is a straightforward method to check if a compound interacts with TXNIP. In this assay, when a compound binds to its target molecule, it can reduce the rate of its proteolytic digestion.
The drug affinity response target stability assay (DARTS assay) is a method to identify potential protein targets (binders) of small molecules. The advantage of this method is being able to use the native small molecule without having to immobilize or modify the […] (e.g., by incorporation of biotin, fluorescent molecules, radioisotope, or photo-affinity labels). In this case, it relies on the protection against proteolysis conferred on TXNIP by interaction with a small molecule (lead compound).
Drug affinity responsive target stability (DARTS) assay. DARTS assay was conducted according to a published protocol (Lomenick et al., 2009; Pai et al., 2015). THP1 cells were lysed with extract buffer. […]

`CC(C)C(C(=O)O)N1C(=O)c2ccncc2C1=O` (stereo not drawn) [Compound C1, 2-(1,3-dioxo-1,3-dihydro-2H-pyrrolo[3,4-c]pyridin-2-yl)-3-methylbutanoic acid] was tested, and the “TNF-α mRNA expression” value (TNF-α mRNA; THP1, 25 mM glucose, concentration range of C1, 72 h (FIG. 9B)) was “inhibits TNF-α mRNA expression; also recorded: lower levels of TNF-α mRNA”, the “HG-induced TNF expression” value (TNF-α mRNA; THP1, high glucose, C1 1.25, 2.5 and 5 uM (FIG. 8)) was “attenuate high glucose induced expression of inflammatory cytokine molecules” and the “protection of purified TXNIP from proteolysis” value (purified TXNIP) was “protects purified TXNIP from proteolysis”. The “TXNIP mRNA expression” value (TXNIP mRNA [1]) was “affects TXNIP and TNF-α mRNA expression; also recorded: strongly inhibited TXNIP mRNA expression”, the “TXNIP mRNA expression” value (TXNIP mRNA [2]) was “inhibits TXNIP mRNA expression; also recorded: attenuate high glucose induced expression of inflammatory cytokine molecules and TXNIP in monocytes; also recorded: inhibit TXNIP expression in a dose-dependent manner” and the “protection of TXNIP from proteolysis” value (TXNIP) was “stabilizes TXNIP by binding to it; also recorded: bind to TXNIP and prevent its proteolysis; also recorded: protects TXNIP from proteolysis”.
